How the values were obtained:
Bacteria = assay: Inhibition of Beta-Lactamase at 10 µM in the Eurofins-Panlabs enzyme assay (Eurofins_assay_126000); type: protein-complex assay; design: substrate with concentration; conditions: Compound concentration 10.0 uM
Rattus norvegicus = species on record: Rattus norvegicus; assay: Inhibition of Glycine, Strychnine-Sensitive at 10 µM in the Eurofins-Panlabs radioligand binding assay (Eurofins_assay_239000); conditions: Compound concentration 10.0 uM
MAO-B = MAO-B (Homo sapiens, UniProt P27338); assay: Inhibition of Monoamine Oxidase MAO-B at compound concentration of 10.0 uM in the Eurofins-Panlabs enzyme assay (Eurofins_assay_140120); design: substrate with concentration 50 uM Kynuramine, incubation time 60 min, incubation temperature 37 C; conditions: human recombinant MAO-B expressed in insect Hi5 cells, probe Kynuramine (50 uM), compound concentration 10 uM
Homo sapiens = species on record: Homo sapiens; assay: Chemokine CCR1 Eurofins-Panlabs radioligand binding assay; design: ligand concentration 0.1 nM; conditions: Compound concentration 10.0 uM
[1] = target: Mitogen-activated protein kinase 9 (Homo sapiens) (UniProt P45984); assay: JNK2 DiscoveRx kinase panel; conditions: Compound concentration 1.0 uM
[2] = target: Calcium/calmodulin-dependent protein kinase type 1 (Homo sapiens) (UniProt Q14012); assay: CAMK1 DiscoveRx kinase panel; conditions: Compound concentration 1.0 uM
[3] = target: Dual specificity protein kinase TTK (Homo sapiens) (UniProt P33981); assay: TTK DiscoveRx kinase panel; conditions: Compound concentration 1.0 uM
[4] = target: Bone morphogenetic protein receptor type-1A (Homo sapiens) (UniProt P36894); assay: BMPR1A DiscoveRx kinase panel; conditions: Compound concentration 1.0 uM
[5] = target: Mitogen-activated protein kinase kinase kinase 10 (Homo sapiens) (UniProt Q02779); assay: MLK2 DiscoveRx kinase panel; conditions: Compound concentration 1.0 uM
[6] = target: Receptor-interacting serine/threonine-protein kinase 2 (Homo sapiens) (UniProt O43353); assay: RIPK2 DiscoveRx kinase panel; conditions: Compound concentration 1.0 uM
[7] = target: Transient receptor potential cation channel subfamily M member 6 (Homo sapiens) (UniProt Q9BX84); assay: TRPM6 DiscoveRx kinase panel; conditions: Compound concentration 1.0 uM
[8] = target: Serine/threonine-protein kinase 17B (Homo sapiens) (UniProt O94768); assay: DRAK2 DiscoveRx kinase panel; conditions: Compound concentration 1.0 uM
[9] = target: Tyrosine-protein kinase Mer (Homo sapiens) (UniProt Q12866); assay: MERTK DiscoveRx kinase panel; conditions: Compound concentration 1.0 uM
[10] = target: LIM domain kinase 1 (Homo sapiens) (UniProt P53667); assay: LIMK1 DiscoveRx kinase panel; conditions: Compound concentration 1.0 uM
[11] = target: Homeodomain-interacting protein kinase 4 (Homo sapiens) (UniProt Q8NE63); assay: HIPK4 DiscoveRx kinase panel; conditions: Compound concentration 1.0 uM
[12] = target: Protein-tyrosine kinase 6 (Homo sapiens) (UniProt Q13882); assay: BRK DiscoveRx kinase panel; conditions: Compound concentration 1.0 uM
[13] = target: Phosphatidylinositol 5-phosphate 4-kinase type-2 beta (Homo sapiens) (UniProt P78356); assay: PIP5K2B DiscoveRx kinase panel; conditions: Compound concentration 1.0 uM
[14] = target: Serine/threonine-protein kinase WNK2 (Homo sapiens) (UniProt Q9Y3S1); assay: WNK2 DiscoveRx kinase panel; conditions: Compound concentration 1.0 uM
[15] = target: NUAK family SNF1-like kinase 1 (Homo sapiens) (UniProt O60285); assay: ARK5 DiscoveRx kinase panel; conditions: Compound concentration 1.0 uM
[16] = target: Tyrosine-protein kinase ABL1 (Homo sapiens) (UniProt P00519); assay: ABL1-phosphorylated DiscoveRx kinase panel; conditions: Compound concentration 1.0 uM
[17] = target: Serine/threonine-protein kinase MARK1 (Homo sapiens) (UniProt Q9P0L2); assay: MARK1 DiscoveRx kinase panel; conditions: Compound concentration 1.0 uM
[18] = target: Serine/threonine-protein kinase TNNI3K (Homo sapiens) (UniProt Q59H18); assay: TNNI3K DiscoveRx kinase panel; conditions: Compound concentration 1.0 uM
[19] = target: Mitogen-activated protein kinase kinase kinase 19 (Homo sapiens) (UniProt Q56UN5); assay: YSK4 DiscoveRx kinase panel; conditions: Compound concentration 1.0 uM
[20] = target: Atypical kinase COQ8A, mitochondrial (Homo sapiens) (UniProt Q8NI60); assay: ADCK3 DiscoveRx kinase panel; conditions: Compound concentration 1.0 uM
[21] = target: Fibroblast growth factor receptor 4 (Homo sapiens) (UniProt P22455); assay: FGFR4 DiscoveRx kinase panel; conditions: Compound concentration 1.0 uM
[22] = target: Serine/threonine-protein kinase B-raf (Homo sapiens) (UniProt P15056); assay: BRAF DiscoveRx kinase panel; conditions: Compound concentration 1.0 uM
[23] = target: Casein kinase I isoform alpha (Homo sapiens) (UniProt P48729); assay: CSNK1A1 DiscoveRx kinase panel; conditions: Compound concentration 1.0 uM
[24] = target: Serine/threonine-protein kinase Sgk3 (Homo sapiens) (UniProt Q96BR1); assay: SGK3 DiscoveRx kinase panel; conditions: Compound concentration 1.0 uM
[25] = target: Ankyrin repeat and protein kinase domain-containing protein 1 (Homo sapiens) (UniProt Q8NFD2); assay: ANKK1 DiscoveRx kinase panel; conditions: Compound concentration 1.0 uM
[26] = target: Bone morphogenetic protein receptor type-1B (Homo sapiens) (UniProt O00238); assay: BMPR1B DiscoveRx kinase panel; conditions: Compound concentration 1.0 uM
[27] = target: Casein kinase I isoform epsilon (Homo sapiens) (UniProt P49674); assay: CSNK1E DiscoveRx kinase panel; conditions: Compound concentration 1.0 uM
[28] = target: Serine/threonine-protein kinase LATS2 (Homo sapiens) (UniProt Q9NRM7); assay: LATS2 DiscoveRx kinase panel; conditions: Compound concentration 1.0 uM
[29] = target: Serine/threonine-protein kinase STK11 (Homo sapiens) (UniProt Q15831); assay: LKB1 DiscoveRx kinase panel; conditions: Compound concentration 1.0 uM
[30] = target: MAP kinase-activated protein kinase 5 (Homo sapiens) (UniProt Q8IW41); assay: MAPKAPK5 DiscoveRx kinase panel; conditions: Compound concentration 1.0 uM
[31] = target: Serine/threonine-protein kinase PAK 2 (Homo sapiens) (UniProt Q13177); assay: PAK2 DiscoveRx kinase panel; conditions: Compound concentration 1.0 uM
[32] = target: Phosphorylase b kinase gamma catalytic chain, skeletal muscle/heart isoform (Homo sapiens) (UniProt Q16816); assay: PHKG1 DiscoveRx kinase panel; conditions: Compound concentration 1.0 uM
[33] = target: Serine/threonine-protein kinase pim-1 (Homo sapiens) (UniProt P11309); assay: PIM1 DiscoveRx kinase panel; conditions: Compound concentration 1.0 uM
[34] = target: Protein kinase C epsilon type (Homo sapiens) (UniProt Q02156); assay: PRKCE DiscoveRx kinase panel; conditions: Compound concentration 1.0 uM
[35] = target: Rho-associated protein kinase 2 (Homo sapiens) (UniProt O75116); assay: ROCK2 DiscoveRx kinase panel; conditions: Compound concentration 1.0 uM
[36] = target: Ribosomal protein S6 kinase alpha-6 (Homo sapiens) (UniProt Q9UK32); assay: RSK4(Kin.Dom.2-C-terminal) DiscoveRx kinase panel; conditions: Compound concentration 1.0 uM
[37] = target: 5-hydroxytryptamine receptor 5A (Homo sapiens) (UniProt P47898); conditions: Compound concentration 10.0 uM
[38] = target: Sodium-dependent dopamine transporter (Homo sapiens, UniProt Q01959); conditions: Compound concentration 10.0 uM
[39] = target: Histamine H2 receptor (Homo sapiens) (UniProt P25021); conditions: Compound concentration 10.0 uM
[40] = target: GABA-A receptor; anion channel (Rattus norvegicus) (UniProt O09028+P15431+P18506+P18508+P19969+P20236+P23574+P23576+P28471+P28473+P30191+P62813+P63079+P63138+Q91ZM7+Q9ES14); conditions: Compound concentration 10.0 uM
[41] = target: Alpha-1A adrenergic receptor (Homo sapiens) (UniProt P35348); conditions: Rattus norvegicus; Compound concentration 10.0 uM
[42] = target: 5-hydroxytryptamine receptor 2B (Homo sapiens) (UniProt P41595); conditions: Compound concentration 10.0 uM
[43] = target: 5-hydroxytryptamine receptor 2C (Homo sapiens) (UniProt P28335); conditions: Compound concentration 10.0 uM

Chain of Serine/threonine-protein kinase WNK2 (Homo sapiens) (Q9Y3S1 whole entry): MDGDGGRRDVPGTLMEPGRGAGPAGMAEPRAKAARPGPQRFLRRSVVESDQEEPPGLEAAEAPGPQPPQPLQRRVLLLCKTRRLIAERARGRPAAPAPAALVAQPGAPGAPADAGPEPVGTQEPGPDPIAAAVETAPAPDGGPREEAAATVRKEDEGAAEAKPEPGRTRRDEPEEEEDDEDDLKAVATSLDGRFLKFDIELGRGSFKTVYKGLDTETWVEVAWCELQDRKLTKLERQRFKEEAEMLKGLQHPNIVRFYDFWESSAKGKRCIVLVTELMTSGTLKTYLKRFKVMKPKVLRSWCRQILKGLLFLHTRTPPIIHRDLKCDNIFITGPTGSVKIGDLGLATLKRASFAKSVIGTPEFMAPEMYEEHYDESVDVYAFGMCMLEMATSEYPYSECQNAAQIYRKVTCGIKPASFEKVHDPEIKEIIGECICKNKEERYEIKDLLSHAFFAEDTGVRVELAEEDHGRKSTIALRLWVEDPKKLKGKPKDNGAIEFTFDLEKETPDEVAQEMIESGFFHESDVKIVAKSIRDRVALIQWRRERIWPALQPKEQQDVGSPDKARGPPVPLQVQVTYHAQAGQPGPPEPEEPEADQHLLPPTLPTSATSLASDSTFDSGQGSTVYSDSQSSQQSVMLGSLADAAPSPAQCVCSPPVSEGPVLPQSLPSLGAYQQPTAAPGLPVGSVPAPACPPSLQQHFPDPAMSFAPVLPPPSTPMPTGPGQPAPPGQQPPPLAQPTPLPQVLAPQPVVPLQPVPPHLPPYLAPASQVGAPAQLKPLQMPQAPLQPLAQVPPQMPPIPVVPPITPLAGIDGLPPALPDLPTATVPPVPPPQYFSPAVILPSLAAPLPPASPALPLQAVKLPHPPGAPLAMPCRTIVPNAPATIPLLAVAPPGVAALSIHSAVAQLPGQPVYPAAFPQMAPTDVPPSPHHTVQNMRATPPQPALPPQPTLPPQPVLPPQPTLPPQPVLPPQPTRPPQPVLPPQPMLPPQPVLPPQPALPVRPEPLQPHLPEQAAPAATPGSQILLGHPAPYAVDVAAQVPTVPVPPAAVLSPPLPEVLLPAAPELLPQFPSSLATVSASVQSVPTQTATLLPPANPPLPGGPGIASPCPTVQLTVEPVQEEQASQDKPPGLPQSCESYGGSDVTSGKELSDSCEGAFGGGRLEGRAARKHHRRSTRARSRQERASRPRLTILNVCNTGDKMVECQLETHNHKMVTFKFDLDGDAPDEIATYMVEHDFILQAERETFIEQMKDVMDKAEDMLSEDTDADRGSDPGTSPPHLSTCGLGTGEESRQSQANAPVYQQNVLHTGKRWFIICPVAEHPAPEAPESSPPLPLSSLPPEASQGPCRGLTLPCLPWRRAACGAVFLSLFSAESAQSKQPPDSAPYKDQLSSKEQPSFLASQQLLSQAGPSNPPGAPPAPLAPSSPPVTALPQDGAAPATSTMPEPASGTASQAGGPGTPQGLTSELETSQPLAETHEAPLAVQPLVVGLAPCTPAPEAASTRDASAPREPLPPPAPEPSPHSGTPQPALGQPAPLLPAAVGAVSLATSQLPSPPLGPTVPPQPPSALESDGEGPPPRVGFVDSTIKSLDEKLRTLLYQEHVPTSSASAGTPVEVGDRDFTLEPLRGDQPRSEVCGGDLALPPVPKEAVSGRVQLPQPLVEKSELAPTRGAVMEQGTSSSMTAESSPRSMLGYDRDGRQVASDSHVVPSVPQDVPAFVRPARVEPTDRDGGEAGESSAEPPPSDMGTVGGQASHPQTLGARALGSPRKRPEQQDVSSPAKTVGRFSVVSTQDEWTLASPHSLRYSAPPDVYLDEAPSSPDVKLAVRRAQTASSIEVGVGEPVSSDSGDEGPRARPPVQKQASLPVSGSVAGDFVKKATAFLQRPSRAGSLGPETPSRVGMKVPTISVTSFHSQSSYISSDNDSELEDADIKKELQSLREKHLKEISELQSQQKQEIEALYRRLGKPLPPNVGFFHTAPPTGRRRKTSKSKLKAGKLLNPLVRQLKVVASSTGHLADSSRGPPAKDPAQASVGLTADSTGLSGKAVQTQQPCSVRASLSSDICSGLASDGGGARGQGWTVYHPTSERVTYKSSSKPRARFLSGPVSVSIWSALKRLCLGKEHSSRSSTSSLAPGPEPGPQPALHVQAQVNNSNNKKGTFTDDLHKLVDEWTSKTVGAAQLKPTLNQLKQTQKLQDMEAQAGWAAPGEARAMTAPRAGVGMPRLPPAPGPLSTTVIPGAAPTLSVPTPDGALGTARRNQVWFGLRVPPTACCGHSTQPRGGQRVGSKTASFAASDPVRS
Chain of Protein-tyrosine kinase 6 (Homo sapiens) (Q13882 whole entry, looked up): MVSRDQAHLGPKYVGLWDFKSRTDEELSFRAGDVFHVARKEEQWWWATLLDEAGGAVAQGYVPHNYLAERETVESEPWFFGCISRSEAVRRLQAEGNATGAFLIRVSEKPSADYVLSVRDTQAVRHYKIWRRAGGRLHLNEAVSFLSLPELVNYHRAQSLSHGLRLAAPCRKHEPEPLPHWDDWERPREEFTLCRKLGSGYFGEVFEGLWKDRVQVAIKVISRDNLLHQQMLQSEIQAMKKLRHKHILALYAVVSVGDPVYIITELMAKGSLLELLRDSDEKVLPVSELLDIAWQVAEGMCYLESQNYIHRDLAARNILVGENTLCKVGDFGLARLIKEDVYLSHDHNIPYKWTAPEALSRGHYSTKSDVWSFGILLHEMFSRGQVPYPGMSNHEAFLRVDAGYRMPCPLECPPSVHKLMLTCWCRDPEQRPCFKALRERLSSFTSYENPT
Chain of Mitogen-activated protein kinase kinase kinase 10 (Homo sapiens) (Q02779 whole entry, looked up): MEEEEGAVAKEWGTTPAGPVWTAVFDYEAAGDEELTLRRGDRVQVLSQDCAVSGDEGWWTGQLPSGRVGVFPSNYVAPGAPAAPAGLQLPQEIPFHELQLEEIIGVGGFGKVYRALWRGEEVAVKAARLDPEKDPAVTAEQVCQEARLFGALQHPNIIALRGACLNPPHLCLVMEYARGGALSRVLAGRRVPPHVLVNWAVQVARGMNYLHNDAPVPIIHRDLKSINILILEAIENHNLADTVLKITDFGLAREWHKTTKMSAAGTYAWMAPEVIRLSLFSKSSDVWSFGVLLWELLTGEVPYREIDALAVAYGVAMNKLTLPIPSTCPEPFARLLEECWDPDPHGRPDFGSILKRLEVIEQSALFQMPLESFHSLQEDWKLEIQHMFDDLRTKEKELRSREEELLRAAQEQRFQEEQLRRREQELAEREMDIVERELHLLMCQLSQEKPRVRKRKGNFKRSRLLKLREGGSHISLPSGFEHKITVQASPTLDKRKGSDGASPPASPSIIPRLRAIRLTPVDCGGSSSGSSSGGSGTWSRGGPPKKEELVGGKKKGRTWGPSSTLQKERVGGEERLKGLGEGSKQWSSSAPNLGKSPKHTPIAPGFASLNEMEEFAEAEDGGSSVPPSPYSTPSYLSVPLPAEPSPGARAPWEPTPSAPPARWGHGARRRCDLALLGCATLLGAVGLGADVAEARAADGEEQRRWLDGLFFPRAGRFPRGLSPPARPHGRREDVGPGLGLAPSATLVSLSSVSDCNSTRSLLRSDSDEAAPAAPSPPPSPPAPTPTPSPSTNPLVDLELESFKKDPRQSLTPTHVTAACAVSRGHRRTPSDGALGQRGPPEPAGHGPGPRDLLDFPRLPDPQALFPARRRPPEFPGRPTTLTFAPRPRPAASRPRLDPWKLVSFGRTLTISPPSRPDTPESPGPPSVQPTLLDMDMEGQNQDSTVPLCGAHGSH
Chain of Bone morphogenetic protein receptor type-1B (Homo sapiens) (O00238 whole entry, canonical isoform): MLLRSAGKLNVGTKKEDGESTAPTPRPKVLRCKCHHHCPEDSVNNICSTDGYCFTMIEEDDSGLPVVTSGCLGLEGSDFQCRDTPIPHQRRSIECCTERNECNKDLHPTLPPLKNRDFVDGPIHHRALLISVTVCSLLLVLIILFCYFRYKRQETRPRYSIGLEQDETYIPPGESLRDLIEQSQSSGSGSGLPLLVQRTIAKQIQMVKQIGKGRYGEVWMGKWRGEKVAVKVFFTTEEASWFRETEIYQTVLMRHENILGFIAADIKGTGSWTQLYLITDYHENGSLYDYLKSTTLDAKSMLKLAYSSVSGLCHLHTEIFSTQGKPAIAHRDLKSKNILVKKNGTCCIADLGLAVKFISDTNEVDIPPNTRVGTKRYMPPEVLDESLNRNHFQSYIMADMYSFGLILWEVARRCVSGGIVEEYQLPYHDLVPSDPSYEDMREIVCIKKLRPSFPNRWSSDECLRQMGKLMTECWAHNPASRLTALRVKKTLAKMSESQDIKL
Chain of Serine/threonine-protein kinase MARK1 (Homo sapiens) (Q9P0L2 whole entry, looked up): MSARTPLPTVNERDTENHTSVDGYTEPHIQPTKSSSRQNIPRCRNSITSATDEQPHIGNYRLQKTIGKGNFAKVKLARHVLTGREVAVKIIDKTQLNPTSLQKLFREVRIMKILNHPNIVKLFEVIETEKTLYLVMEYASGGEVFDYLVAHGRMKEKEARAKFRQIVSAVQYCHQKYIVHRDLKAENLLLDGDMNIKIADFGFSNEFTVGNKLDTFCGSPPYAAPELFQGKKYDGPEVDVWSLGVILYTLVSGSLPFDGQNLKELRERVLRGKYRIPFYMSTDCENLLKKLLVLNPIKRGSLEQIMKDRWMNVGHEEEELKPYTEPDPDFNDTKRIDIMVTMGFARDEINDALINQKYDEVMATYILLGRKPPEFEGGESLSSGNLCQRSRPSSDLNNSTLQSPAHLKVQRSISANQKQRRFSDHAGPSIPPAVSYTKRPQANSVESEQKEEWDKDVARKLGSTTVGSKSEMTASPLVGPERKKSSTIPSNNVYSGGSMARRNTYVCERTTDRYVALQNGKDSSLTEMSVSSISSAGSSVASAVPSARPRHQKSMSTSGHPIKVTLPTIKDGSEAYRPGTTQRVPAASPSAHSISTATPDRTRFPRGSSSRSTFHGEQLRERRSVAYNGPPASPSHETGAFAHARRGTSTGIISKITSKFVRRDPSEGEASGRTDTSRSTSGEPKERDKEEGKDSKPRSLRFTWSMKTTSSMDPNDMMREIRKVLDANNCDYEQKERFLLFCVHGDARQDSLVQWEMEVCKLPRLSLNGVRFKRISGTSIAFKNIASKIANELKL

COc1cnccc1Nc1nc(-c2nn(Cc3c(F)cc(OCCO)cc3F)c3ccccc23)ncc1OC
inhibition (Bacteria): 21% | inhibition (Rattus norvegicus): 0% | inhibition at 60 min, 10 µM (MAO-B): -15% (not active) | inhibition (Homo sapiens): -4% | residual activity [1]: 39% | residual activity [2]: 52% | residual activity [3]: 62% | residual activity [4]: 74% | residual activity [5]: 76% | residual activity [6]: 82% | residual activity [7]: 82% | residual activity [8]: 83% | residual activity [9]: 83% | residual activity [10]: 86% | residual activity [11]: 90% | residual activity [12]: 91% | residual activity [13]: 91% | residual activity [14]: 91% | residual activity [15]: 92% | residual activity [16]: 94% | residual activity [17]: 97% | residual activity [18]: 97% | residual activity [19]: 97% | residual activity [20]: 98% | residual activity [21]: 98% | residual activity [22]: 99% | residual activity [23]: 99% | residual activity [24]: 99% | residual activity [25]: 100% | residual activity [26]: 100% | residual activity [27]: 100% | residual activity [28]: 100% | residual activity [29]: 100% | residual activity [30]: 100% | residual activity [31]: 100% | residual activity [32]: 100% | residual activity [33]: 100% | residual activity [34]: 100% | residual activity [35]: 100% | residual activity [36]: 100% | inhibition [37]: -6.97% | inhibition [38]: 60.2% | inhibition [39]: 9.79% | inhibition [40]: 24.9% | inhibition [41]: 8% | inhibition [42]: 22% | inhibition [43]: 21%

— ChEMBL document CHEMBL5058649, “Data for DCP probe BAY 1816032” (2022)
